One assay concerns the target T1, CD95/PLCγ1 interaction (Homo sapiens, UniProt P19174).
T1 construct: The PLCγ1-SH3 domain (aa 790-851) (C); expressed in transfected cells; host or cells: HEK293T
T1 sequence (P19174 790-851): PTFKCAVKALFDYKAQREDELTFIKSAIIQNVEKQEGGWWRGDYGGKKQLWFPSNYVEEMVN
As to the kind of experiment: Renilla luciferase protein-fragment complementation assay (PCA), CD95-CID/PLCγ1-SH3. The format is cell-based. To be noted: for effect on interaction of CD95 with PLCγ1: result in words. As to the method:
FIG. 1. […] A. Schematic representation of the protein-fragment complementation assay used with CD95-CID or -DD fused to F2 and PLCγ1-SH3 or FADD-DD fused to F1 to identify inhibitors from the Prestwick library. The Renilla luciferase enzyme was divided into amino-terminal and carboxy-terminal fragments (yellow domains) and fused to the indicated domains. B. Compounds from the Prestwick library were tested against CD95/PLCγ1 or CD95/FADD PCA. […] Inhibition of CD95/FADD interaction is also assessed.
Light emission indicates refolding of the luciferase and reconstitution of enzyme activity through protein/protein interactions. […] Data represent means±SD of three independent experiments. […] Then, the indicated peptides fused with or without the cell-penetrating domain TAT were incubated at the indicated concentrations for 4 hrs and luminescence was assessed. Data represent means±SD of three independent experiments. […].
HEK293T cells were electroporated with 5 μg of DNA using BTM-830 electroporation generator (BTX Instrument Division, Harvard Apparatus) with 10 μg of DNA. Transfected cells were cultured for 24 hrs prior to protein complementation assay analyses as previously described (17). Briefly, transfected cells (10^6) were washed, resuspended in 100 μl PBS and deposited in OptiPlate-96 (PerkinElmer, Waltham, Mass., USA). Coelenterazine-h (5 μM, Sigma) was injected to each well and renilla luciferase activity was monitored for the first 10 seconds using Infinite200Pro (Tecan, Männedorf, Switzerland).
A peptide consisting of the cell-penetrating domain of TAT fused to CID (TAT-CID) binds the SH3 domain of PLCγ1 and thereby, prevents PLCγ1/CD95 interaction and the subsequent induction of the Ca^2+ response (16). […] Briefly, the Renilla luciferase enzyme was divided into two fragments (F1 and F2 fragments). […] Interaction of CD95 with PLCγ1 or FADD allows the reconstitution of RLuc and subsequent light emission (FIG. 1A). The chemical Prestwick library was screened against these PCAs (FIG. 1B). […] These molecules are designated CID inhibitors or CIDINH.

Another assay relates to activated PBLs. As to the kind of experiment: CD95-mediated cell migration / endothelial transmigration of activated PBLs (Boyden chamber). In kind it is cell-based, human. To be noted: result in words. As for the experimental part: FIG. 3. Drugs inhibit CD95-mediated Ca′ response and cell migration. A. Activated PBLs were loaded with FuraPE3-AM (1 μM) and pre-treated for 1 h with non-toxic concentrations of indicated compounds. T-cells were then stimulated with cl-CD95L (100 ng/mL; arrow). Ratio values (R) were normalized to pre-stimulated values (R0) to yield R/R0 values. Data represent means±the SD. B. Left panel: using Boyden chamber assay, cell migration of parental H9 cells and their counterpart lacking CD95 (CD95-KO) was assessed. Right panel: activated PBLs were pre-incubated in the presence or absence of the indicated drugs for 1 hour using non-toxic concentration and the CD95-mediated cell migration was assessed by Boyden chambers. C. Th17 cells were sorted from blood of healthy donors (peripheral blood mononuclear cell). FACS analyses showing the efficiency of Th17 (CCR6^+ CXCR3^−) cell sorting from healthy donors PBMCs. D. Th17 cells were pre-incubated in the presence or absence of the indicated drugs for 1 hour using non-toxic concentration and cell migration was assessed by Boyden chambers. After membrane hydration of Boyden chambers (Millipore, Molsheim, France) containing 8 μm pore membranes, 10^5 cells were added to the top chamber. The bottom chamber was filled with low serum (1%)-containing medium in the presence or absence of cl-CD95L (100 ng/ml). Cells were incubated for 24 h. To quantify invasion, cells were fixed with methanol and stained with Giemsa. Stained cells were then removed from the top-side of the membrane using a cotton-tipped swab and five representative pictures for each insert were taken of the invading cells from the reverse side. For each experiment, invading cells were lysed and absorbance at 560 nm was measured. Membranes (3 μm pore size) of a Boyden chamber were hydrated in sterile D-PBS (Millipore, Molsheim, France). Thereafter, activated T-lymphocytes (10^6) were added to the top chamber on a confluent monolayer of HUVEC in a low serum (1%)-containing medium. The bottom chamber was filled with low serum (1%)-containing medium in presence or absence of 100 ng/ml of cl-CD95L. In experiments using human sera, 500 μl of serum from either healthy donors or SLE patients was added to the lower chamber. Cells were cultured for 24 h at 37° C. in a 5% CO2, humidified incubator. Transmigrated cells were counted in the lower reservoir by flow cytometry using a standard of 2.5×10^4 fluorescent beads (Flow-count, Beckman Coulter).

In assay [1] the test system is CD95-mediated Ca2+ signaling pathway in Th17 cells. The assay is described as follows: CD95-mediated Ca2+ response in Th17 cells. The format is cell-based, human. To be noted: drugs 1 μM for 1 h, s-CD95L 100 ng/mL, Fluo2 LR-AM. As to the method:
A. Activated PBLs were loaded with FuraPE3-AM (1 μM) and pre-treated for 1 h with non-toxic concentrations of indicated compounds. T-cells were then stimulated with thapsigargin (1 μM; arrow). Ratio values (R) were normalized to pre-stimulated values (R0) to yield R/R0 values. Data represent means±the SD. B. Th17 cells were sorted from healthy donors and loaded with FuraPE3-AM (1 μM). Th17 cells were pre-treated for 1 h with non-toxic concentrations of ritonavir or diflunisal (1 μM). T-cells were then stimulated with cl-CD95L (100 ng/mL; arrow). Ratio values (R) were normalized to pre-stimulated values (R0) to yield R/R0 values. Data represent means±the SD.
Human PBLs were sorted using flow cytometry cell sorting to isolate Th17 (A) according to their phenotype (CD3+CD4+CXCR5−CCR6+CXCR3−CD45RA−) and Tfh (B) (CD4+CXCR5+ICOS+PD−1+CD45RA−). Cells were pre-incubated with Indicated drugs (1 μM) for 1 h and then stimulated with 100 ng/mL of s-CD95L. [Ca2+]CYT was assessed in Fluo2 LR-AM (3 μM)-loaded cells. Data represent means±the SD of 3 independent experiments.
Peripheral blood mononuclear cells (PBMC) were isolated from buffy-coat by density gradient using lymphocyte separation medium (Eurobio, Les Ulis, France). PBMCs were then subjected to selection using a cocktail of antibody-coated magnetic beads: CCR6^+ CXCR3^−CD4^+ cells (Th17 cells) were sorted with Human Th17 Enrichment kit (STEMCELL Technologies, Grenoble, France). Cell sorting efficiency was evaluated by FACS.
T-cells were loaded with Fura-PE3-AM (1 μM) at room temperature for 30 min in Hank's Balanced Salt Solution (HBSS). After washing, the cells were incubated for 15 min in the absence of Fura-PE3-AM to complete de-esterification of the dye. Cells were placed in a temperature controlled chamber (37° C.) of an inverted epifluorescence microscope (Olympus IX70) equipped with an x40 UApo/340-1.15 W water-immersion objective (Olympus), and fluorescence micrograph images were captured at 510 nm and 12-bit resolution by a fast-scan camera (CoolSNAP fx Monochrome, Photometrics). To minimize UV light exposure, a 4×4 binning function was used. Fura-PE3 was alternately excited at 340 and 380 nm, and the ratios of the resulting images (emission filter at 520 nm) were produced at constant intervals (10 seconds). The Fura-PE3 ratio (Fratio 340/380) images were analyzed offline with Universal Imaging software, including Metafluor and Metamorph. Fratio reflects the intracellular Ca^2+ concentration changes. Each experiment was repeated at least 3 times, and the average of more than 20 single-cell traces per experiment was analyzed.

Assay [2] concerns CD95-mediated Ca2+ signaling pathway in Tfh cells. The assay is described as follows: CD95-mediated Ca2+ response in Tfh cells. In kind it is cell-based, human. To be noted: drugs 1 μM for 1 h, s-CD95L 100 ng/mL, Fluo2 LR-AM.
Assay [3] addresses T2, PLCγ1-SH3 domain (aa 790-851) fused to F1 fragment of Renilla luciferase, P19174.
T2 chain: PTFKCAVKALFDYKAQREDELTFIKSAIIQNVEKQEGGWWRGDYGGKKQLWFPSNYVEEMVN

Assay [4] addresses T2, PLCγ1-SH3 domain (aa 790-851) fused to …. The assay is described as follows: Renilla luciferase protein-fragment complementation assay in non-permeabilized HEK cells (CID-CD95-F2 / PLCγ1-SH3-F1), peptide 4 h; displaces CID-CD95.

Read-outs that look alike come from different tables or passages of the source.

Regarding `COc1ccc(-c2cc(=S)ss2)cc1` [anethole, 5-(4-methoxyphenyl)dithiole-3-thione], the “effect on interaction of CD95 with PLCγ1” value on CD95/PLCγ1 interaction is reported as “efficiently prevented”. In the assay with activated PBLs, the “effect on endothelial transmigration of PBLs” value (“effect … of PBLs” below) is “inhibited”.

Consider `COC(=O)N[C@H](C(=O)N[C@@H](Cc1ccccc1)[C@@H](O)CN(Cc1ccc(-c2ccccn2)cc1)NC(=O)[C@@H](NC(=O)OC)C(C)(C)C)C(C)(C)C` [atazanavir], for which the “effect on CD95-mediated Ca2+ signaling pathway in Th17 cells” value (“effect … in Th17 cells” below) in assay [1] is recorded as “efficiently abrogated”. Besides, in assay [2], the “effect on CD95-mediated Ca2+ signaling pathway in Tfh cells” value (from here on “effect … in Tfh cells”) is on record as “efficiently abrogated”.

`CC(C)CN(C[C@@H](O)[C@H](Cc1ccccc1)NC(=O)O[C@H]1CO[C@H]2OCC[C@H]21)S(=O)(=O)c1ccc(N)cc1` [darunavir]: the “effect … in Th17 cells” value in assay [1] was “efficiently abrogated”. Also, the “effect … in Tfh cells” value in assay [2] is on record as “efficiently abrogated”.

In the case of `COc1cccc2c1C(=O)c1c(O)c3c(c(O)c1C2=O)C[C@@](O)(C(C)=O)C[C@@H]3O[C@H]1C[C@H](N)[C@H](O)[C@H](C)O1` [daunorubicin, (7S,9S)-9-acetyl-7-[(2R,4S,5S,6S)-4-amino-5-hydroxy-6-methyloxan-2-yl]oxy-6,9,11-trihydroxy-4-methoxy-8,10-dihydro-7H-tetracene-5,12-dione], the “effect on interaction of CD95 with PLCγ1” value at CD95/PLCγ1 interaction is “efficiently prevented”. In the assay on activated PBLs, the “effect … of PBLs” value is “inhibited”.

As to `Cc1cccc(C)c1OCC(=O)N[C@@H](Cc1ccccc1)[C@@H](O)C[C@H](Cc1ccccc1)NC(=O)[C@H](C(C)C)N1CCCNC1=O` [lopinavir], the “effect … in Th17 cells” value in assay [1] is given as “efficiently abrogated”. For the same molecule, the “effect … in Tfh cells” value in assay [2] is “efficiently abrogated”.

On to `CN(CCOc1ccc(CC2SC(=O)NC2=O)cc1)c1ccccn1` (stereo not shown) [rosiglitazone, 5-[[4-[2-[methyl(pyridin-2-yl)amino]ethoxy]phenyl]methyl]-1,3-thiazolidine-2,4-dione], for which, at CD95/PLCγ1 interaction, the “effect on interaction of CD95 with PLCγ1” value was “efficiently prevented”. Besides, the “effect … of PBLs” value in the assay with activated PBLs is recorded as “inhibited”.

For the molecule “TAT-minCID: heptapeptide minCID (TCRKHRK, SEQ ID NO:1) fused with the cell-penetrating domain TAT (not fully specified; chains of the parent or of the whole protein)”, the IC50 with CD95/PLCγ1 interaction (PCA in HEK cells, peptides incubated for 4 hours, read-out: IC50, disruption of CD95/PLCγ1 interaction by peptides) turned out to be 11.5 µM.

In assay [3], TCRKHRK (modifications not checked) [TAT-minCID (cell-penetrating domain TAT fused to minCID, TCRKHRK)] yielded an IC50 of 11.5 µM.

TCRKHRK (modifications not checked) [minCID (minimal CID, amino acids 182 to 188 of CD95, TCRKHRK)] returned an IC50 in assay [4] of 35.5 µM.

KRKEVQKTCRKHRKENQGSHESPTLNPETVAINLSD (modifications not checked) showed an IC50 in assay [3] of 10.8 µM.
